Laboratory results published in US4725621A, “CL-1957E antibiotic compound and its production” (priority 1986, dated 1988).
In brackets after ≈: the same amount, converted by molar mass. Where a name gives a salt, the structure may show the parent alone.

Assays:
solubility in water = type: physicochemical; conditions: lyophilized triethylammonium salt
Protocol: A cooled solution of triethylamine (2.45 ml, 0.176 mmol) in 7.55 ml of water is added dropwise with stirring to a solution of 100 mg (0.176 mmol) of CL-1957E in 2.5 ml of methanol. The resulting solution is concentrated to a final volume of about 2 ml on a rotary evaporator and then diluted to 40 ml with water. Two-milliliter aliquots of this solution were added to each of several 6-ml vials.

Escherichia coli = experiment: antimicrobial activity, broth microdilution (Mueller-Hinton broth); type: cell-based; conditions: culture number 04863, read-out: Minimal Inhibitory Concentration (MIC)
Protocol: (§1) The antimicrobial activity of CL-1957E was evaluated using the broth microdilution method. Serial dilutions of CL-1957E were made in Muellar-Hinton broth for bacteria and in yeast extract-peptone-dextrose broth for the fungi.

Salmonella typhimurium = experiment: as above; type: cell-based; conditions: Salmonella enterica, culture number TA1535, read-out: Minimal Inhibitory Concentration (MIC)
Protocol: as §1

Staphylococcus aureus = experiment: as above; type: cell-based; conditions: culture number 02482, read-out: Minimal Inhibitory Concentration (MIC)
Protocol: as §1

Streptococcus faecalis = experiment: as above; type: cell-based; conditions: Enterococcus faecalis; culture number 05045; read-out: Minimal Inhibitory Concentration (MIC)
Protocol: as §1

Branhamella catarrhalis = experiment: as above; type: cell-based; conditions: Moraxella catarrhalis; culture number 03596; read-out: Minimal Inhibitory Concentration (MIC)
Protocol: as §1

Alcaligenes viscolactis = experiment: as above; type: cell-based; conditions: culture number 21698, read-out: Minimal Inhibitory Concentration (MIC)
Protocol: as §1

Streptococcus pyogenes = experiment: as above; type: cell-based; conditions: culture number C203, read-out: Minimal Inhibitory Concentration (MIC)
Protocol: as §1

Bacillus megaterium = experiment: as above; type: cell-based; conditions: Priestia megaterium; culture number 066; read-out: Minimal Inhibitory Concentration (MIC)
Protocol: as §1

Micrococcus luteus = experiment: as above; type: cell-based; conditions: culture number 05064, read-out: Minimal Inhibitory Concentration (MIC)
Protocol: as §1

Bacillus cereus = experiment: as above; type: cell-based; conditions: culture number 04810, read-out: Minimal Inhibitory Concentration (MIC)
Protocol: as §1

Pseudomonas aeruginosa = experiment: as above; type: cell-based; conditions: culture number 05111, read-out: Minimal Inhibitory Concentration (MIC)
Protocol: as §1

Streptococcus pneumoniae = experiment: as above; type: cell-based; conditions: culture number SV1, read-out: Minimal Inhibitory Concentration (MIC)
Protocol: as §1

[1] = tested on: Schizosaccharomyces pombe; experiment: antimicrobial activity, broth microdilution (yeast extract-peptone-dextrose broth); type: cell-based; conditions: culture number M1388, read-out: Minimal Inhibitory Concentration (MIC)
Protocol: as §1

Mucor parasiticus = experiment: as above; type: cell-based; conditions: culture number M2652, read-out: Minimal Inhibitory Concentration (MIC)
Protocol: as §1

Rhizopus japonicus = experiment: as above; type: cell-based; conditions: culture number M1557, read-out: Minimal Inhibitory Concentration (MIC)
Protocol: as §1

Torulopsis albida = experiment: as above; type: cell-based; conditions: Naganishia albida; culture number M1390; read-out: Minimal Inhibitory Concentration (MIC)
Protocol: as §1

Saccharomyces cerevisiae = experiment: as above; type: cell-based; conditions: culture number S288, read-out: Minimal Inhibitory Concentration (MIC)
Protocol: as §1

Rhodotorula aurantiaca = experiment: as above; type: cell-based; conditions: Buckleyzyma aurantiaca; culture number M1508; read-out: Minimal Inhibitory Concentration (MIC)
Protocol: as §1

[2] = tested on: L1210 mouse leukemia cells; experiment: in vitro cytotoxicity against L1210 mouse leukemia cells; type: cell-based; conditions: read-out: ID50 (cytotoxicity)
Protocol: (§2) The cytotoxicity of CL-1957E against L1210 mouse leukemia cells and against human colon adenocarcinoma (HCT 8) cells was measured in vitro. The ID50 values appear in Table 8.

[3] = tested on: human colon adenocarcinoma (HCT 8) cells; experiment: in vitro cytotoxicity against human colon adenocarcinoma (HCT 8) cells; type: cell-based; conditions: read-out: ID50 (cytotoxicity)
Protocol: as §2

P388 leukemia = experiment: in vivo activity against P388 leukemia in mice; conditions: Days 1-5, P388 inoculated intraperitoneally Day 0
Protocol: The in vivo activity of CL-1957E against P388 leukemia in mice was assayed using the protocol established in Cancer Chemotherapy Reports, Vol. 3, Part 3, 1-87 (1972). The results of these tests are presented in Table 7 in terms of %T/C values which are the ratios of mean survival times of treated to control animals, expressed as percentages.

Q: Which solubility in water (solubility in water) does the source give for `CC(/C=C/C1OC(=O)C=CC1C)=C\C(C)C/C=C/C(C)=C/C(CO)C(=O)C(C)C(O)C(C)C/C(C)=C/C(=O)O` (stereo not shown) [CL-1957E triethylammonium salt] here?
A: soluble in water

Q: For `CC(/C=C/C1OC(=O)C=CC1C)=C\C(C)C/C=C/C(C)=C/C(CO)C(=O)C(C)C(O)C(C)C/C(C)=C/C(=O)O` (stereo not shown) [CL-1957E, 19-(3,6-dihydro-3-methyl-6-oxo-2H-pyran-2-yl)-6-hydroxy-9-(hydroxymethyl)-3,5,7,11,15,17-hexamethyl-8-oxo-2,10,12,16,18-nonadecapentaenoic acid], which MIC (Escherichia coli) is on record?
A: > 1000 µg/mL

Q: What about the MIC (Salmonella typhimurium) of the same compound?
A: > 1000 µg/mL

Q: And the MIC (Staphylococcus aureus)?
A: ≤ 0.46 µg/mL

Q: And the MIC (Streptococcus faecalis)?
A: ≤ 0.46 µg/mL

Q: And the MIC (Branhamella catarrhalis)?
A: ≤ 0.46 µg/mL

Q: What about the MIC (Alcaligenes viscolactis) of the same compound?
A: ≤ 0.46 µg/mL

Q: What about the MIC (Streptococcus pyogenes) of the same compound?
A: ≤ 0.46 µg/mL

Q: What about the MIC (Bacillus megaterium) of the same compound?
A: ≤ 0.46 µg/mL

Q: What about the MIC (Micrococcus luteus) of the same compound?
A: ≤ 0.46 µg/mL

Q: What about the MIC (Bacillus cereus) of the same compound?
A: ≤ 0.46 µg/mL

Q: What about the MIC (Pseudomonas aeruginosa) of the same compound?
A: > 1000 µg/mL

Q: What about the MIC (Streptococcus pneumoniae) of the same compound?
A: ≤ 0.46 µg/mL

Q: And the MIC [1]?
A: 12.3 µg/mL (≈ 22.7 µM)

Q: And the MIC (Mucor parasiticus)?
A: > 1000 µg/mL

Q: And the MIC (Rhizopus japonicus)?
A: > 1000 µg/mL

Q: What about the MIC (Torulopsis albida) of the same compound?
A: > 1000 µg/mL

Q: What about the MIC (Saccharomyces cerevisiae) of the same compound?
A: > 1000 µg/mL

Q: What about the MIC (Rhodotorula aurantiaca) of the same compound?
A: > 1000 µg/mL

Q: And the IC50 [2]?
A: 0.0034 µg/mL (≈ 0.00626 µM)

Q: What about the IC50 [3] of the same compound?
A: 0.001 µg/mL (≈ 0.00184 µM)

Q: And the “% T/C (ratio of mean survival times of treated to control animals)” value (P388 leukemia; 25 μg/kg/injection)?
A: 130%

Q: What about the “% T/C (ratio of mean survival times of treated to control animals)” value (P388 leukemia; 50 μg/kg/injection) of the same compound?
A: 139%

Q: What about the “% T/C (ratio of mean survival times of treated to control animals)” value (P388 leukemia; 100 μg/kg/injection) of the same compound?
A: 153%

Q: What about the “% T/C (entry in words: toxicity)” value (P388 leukemia; 200 μg/kg/injection) of the same compound?
A: Toxic
